Experimental data from US9890153B2, “Substituted 1H-pyrrolo [2, 3-b] pyridine and 1H-pyrazolo [3, 4-b] pyridine derivatives as salt inducible kinase 2 (SIK2) inhibitors” (Arrien Pharmaceuticals LLC, priority 2012, dated 2018).
“Also recorded” adds a separate entry of the source. Like-named read-outs stand apart in the source and are kept apart here.

Legend:
[1] = Rat bioavailability and pharmacokinetics; format: in vivo, male Sprague Dawley rats
Method: The objective of this study was to investigate the bio-availability and pharmacokinetics of a 1H-Pyrrolo[2,3-b]pyridine compound in male Sprague Dawley rats. A total of 6 male rats were used in the study.
Dose formulations were prepared on the day of doing. Blood samples were collected at 0.083 (only IV), 0.25, 0.5, 1, 2, 4, 8 and 24 h post-dose. At each time point, approximately 0.2 mL of blood was withdrawn from each cannulated rat through jugular vein and transferred to a pre-labeled microfuge tube containing 20 μL of 200 mM K2EDTA permL of blood. Following collection of blood sample, equal volume of heparinized saline was flushed into jugular vein of rat. The blood samples were centrifuged at 5000 g for 5 minutes at 4±2° C. The plasma was separated within 30 min of scheduled time and stored below −60° C. until bio-analysis. The plasma samples were analyzed for 114 using a fit-for purpose liquid chromatographic tandem mass spectrometric detection (LC-MS/MS) method with a lower limit of quantification of 2.21 ng/mL. The pharmacokinetic parameters for compound 114 were calculated using the non-compartmental analysis tool of validated WinNonlin® software (Version 5.2).

SIK1 (SEQ ID NO: 10) = molecular target: T1, SIK1 (SEQ ID NO: 10) (Homo sapiens, UniProt P57059); test: Protein kinase assay, SIK1; format: biochemical; conditions: read-out: SIK1 (SEQ ID NO: 10) kinase inhibition result
T1 construct: Reaction Biology Corporation (assay service, HotSpot panel)
Procedure, shortened: (§1)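 Radiometric assay in HEPES pH 7.5 with MgCl2, EGTA, Brij35, BSA, Na3VO4, DTT and 1% DMSO; compound added ~20 min before ATP plus 33P-ATP (10 μM final). IC50 from curve fits.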

[2] = molecular target: T2, SIK3 (QSK) (SEQ ID NO: 24) (Homo sapiens, UniProt Q9Y2K2); test: Protein kinase assay, SIK3; format: biochemical; conditions: read-out: SIK3 (QSK) (SEQ ID NO: 24) kinase inhibition result
T2 construct: Reaction Biology Corporation (assay service, HotSpot panel)
Procedure, shortened: as §1

[3] = molecular target: SIK2 (QIK) (SEQ ID NO: 11) (Homo sapiens, UniProt Q9H0K1); test: SIK2 kinase assay (radiometric, 10 μM ATP); format: biochemical; conditions: read-out: SIK2 (QIK) (SEQ ID NO: 11) kinase inhibition result
Procedure, shortened: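 Radiometric filter-binding format: enzyme and substrate peptide incubated with or without compound and ATP mix for 20 min at 30 °C. Reaction stopped with phosphoric acid, captured on filter mats and washed with 0.8% phosphoric acid before counting.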

SKOV3ip1 tumor cells = test: SKOv3 induced orthotopic murine model; format: in vivo, athymic female mice; conditions: 20-100 mg/kg i.p. or p.o.
Method: Dose-finding experiments initiated by injecting SKOV3ip1 (SKOV3ip1 cells were collected from cultures using either 0.25% trypsin-EDTA (Life Technologies) on the cell line) tumor cells i.p. (2.5×10^5) into athymic female mice. 19 days after tumor cell orthotopic inoculation and when i.p. tumors were palpable, then the mice randomized into 6 dosage groups: 0 mg (vehicle alone, group 1), 20 and 40 mg/kg (groups 2, 3) received 1H-Pyrrolo[2,3-b]pyridine compound i.p QD for 3 days (M/W/F), 60 and 80 mg/kg (groups 4, 5) received 1H-Pyrrolo[2,3-b]pyridine compound p.o BID for 3 days (M/W/F) and 100 mg/kg group received 1H-Pyrrolo[2,3-b]pyridine compound+Taxol p.o BID for 3 days (M/W/F). […] Additionally, we performed quantitative RT-PCR, Western blot, and immunocytology experiments to identify overexpression of SIK2 in control groups against treatment groups along with SIK2 inhibition of transcription factor CREB via phosphorylation of its cofactor TORC2/CRTC2 as a biological indicator of SIK2 kinase activity. Further characterized the effects of SIK2 kinase inhibition on tumor growth inhibition, examined the tumor nodule formation.

SKOv3 cells = test: SKOv3 i.p. xenograft in nu/nu mice; format: in vivo; conditions: derivatives 30, 60 mg/kg, taxol 10 mg/kg, FIG. 5a-c
Method: We examined the growth-inhibitory effect of 1H-Pyrrolo[2,3-b]pyridine derivatives in-vivo employing an i.p. xenograft model in which nu/nu mice were inoculated i.p. with sensitive cell line SKOv3 cells. One week after inoculation, mice were randomized into six treatment groups receiving vehicle, 1H-Pyrrolo[2,3-b]pyridine derivatives 30, 60 mg/kg, taxol 10 mg/kg and 1H-Pyrrolo[2,3-b]pyridine plus taxol. Drug treatment was well tolerated except i.p. treatment second group, with no apparent toxicity throughout the study. At the end of an experiment, all mice were sacrificed for tumor volume, weight and each mouse examined and recorded at autopsy.

[4] = male, Sprague Dawley, plasma, IV 5 mg/kg, rat
[5] = male, Sprague Dawley, plasma, PO 20 mg/kg, rat

T1 sequence (P57059 whole entry): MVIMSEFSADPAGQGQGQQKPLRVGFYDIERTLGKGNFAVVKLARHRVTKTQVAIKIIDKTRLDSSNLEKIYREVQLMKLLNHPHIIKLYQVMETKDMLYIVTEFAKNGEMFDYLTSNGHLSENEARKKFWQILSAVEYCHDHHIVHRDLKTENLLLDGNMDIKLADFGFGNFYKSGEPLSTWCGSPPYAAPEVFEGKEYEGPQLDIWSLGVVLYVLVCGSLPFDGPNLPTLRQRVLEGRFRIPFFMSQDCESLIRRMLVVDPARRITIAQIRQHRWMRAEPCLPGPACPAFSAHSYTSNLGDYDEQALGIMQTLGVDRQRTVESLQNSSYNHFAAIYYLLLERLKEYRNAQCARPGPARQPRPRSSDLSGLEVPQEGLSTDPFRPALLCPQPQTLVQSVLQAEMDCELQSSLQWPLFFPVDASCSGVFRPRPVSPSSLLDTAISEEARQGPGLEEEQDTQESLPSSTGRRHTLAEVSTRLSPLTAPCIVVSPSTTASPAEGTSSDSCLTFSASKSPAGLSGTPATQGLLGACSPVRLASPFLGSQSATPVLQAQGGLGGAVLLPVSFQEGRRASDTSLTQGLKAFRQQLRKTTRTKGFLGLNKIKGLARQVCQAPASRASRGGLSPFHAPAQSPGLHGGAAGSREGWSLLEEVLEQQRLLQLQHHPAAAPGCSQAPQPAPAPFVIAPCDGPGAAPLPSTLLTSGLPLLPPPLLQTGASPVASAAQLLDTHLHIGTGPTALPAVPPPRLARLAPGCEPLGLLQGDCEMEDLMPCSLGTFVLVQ
T2 sequence (Q9Y2K2 whole entry): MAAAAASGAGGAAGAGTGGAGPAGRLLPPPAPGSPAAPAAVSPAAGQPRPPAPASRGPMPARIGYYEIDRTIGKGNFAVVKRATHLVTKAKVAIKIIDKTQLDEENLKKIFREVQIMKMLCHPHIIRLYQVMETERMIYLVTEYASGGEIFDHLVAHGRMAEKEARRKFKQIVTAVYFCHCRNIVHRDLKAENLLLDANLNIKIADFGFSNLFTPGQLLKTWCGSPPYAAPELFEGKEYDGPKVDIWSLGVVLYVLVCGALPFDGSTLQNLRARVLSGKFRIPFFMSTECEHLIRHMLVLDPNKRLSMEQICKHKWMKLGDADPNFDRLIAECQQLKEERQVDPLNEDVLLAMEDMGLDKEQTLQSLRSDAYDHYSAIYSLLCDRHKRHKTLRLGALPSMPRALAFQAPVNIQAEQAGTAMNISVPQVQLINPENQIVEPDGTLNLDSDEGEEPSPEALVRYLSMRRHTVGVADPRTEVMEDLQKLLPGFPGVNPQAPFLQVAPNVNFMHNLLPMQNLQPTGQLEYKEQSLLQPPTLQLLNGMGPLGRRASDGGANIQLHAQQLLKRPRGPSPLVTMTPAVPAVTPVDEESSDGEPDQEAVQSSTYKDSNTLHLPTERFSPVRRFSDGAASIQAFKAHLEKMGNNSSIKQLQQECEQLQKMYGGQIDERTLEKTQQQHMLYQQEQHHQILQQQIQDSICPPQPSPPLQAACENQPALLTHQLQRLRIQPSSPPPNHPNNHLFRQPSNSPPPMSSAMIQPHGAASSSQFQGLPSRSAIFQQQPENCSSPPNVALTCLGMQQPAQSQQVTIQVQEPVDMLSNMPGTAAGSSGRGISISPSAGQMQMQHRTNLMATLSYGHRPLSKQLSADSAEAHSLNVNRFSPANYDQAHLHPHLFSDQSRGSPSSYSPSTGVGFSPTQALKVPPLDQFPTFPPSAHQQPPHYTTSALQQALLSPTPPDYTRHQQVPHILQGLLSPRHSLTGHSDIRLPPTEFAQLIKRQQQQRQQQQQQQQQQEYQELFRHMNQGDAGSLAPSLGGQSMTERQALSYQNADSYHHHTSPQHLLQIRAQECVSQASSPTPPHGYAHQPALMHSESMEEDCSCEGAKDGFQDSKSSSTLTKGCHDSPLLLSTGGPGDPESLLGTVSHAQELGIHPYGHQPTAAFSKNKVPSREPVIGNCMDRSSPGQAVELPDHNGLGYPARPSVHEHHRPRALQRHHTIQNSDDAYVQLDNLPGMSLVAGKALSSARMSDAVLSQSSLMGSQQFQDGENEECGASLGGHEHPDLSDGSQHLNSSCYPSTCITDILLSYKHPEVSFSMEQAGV
Sequence of SIK2 (QIK) (SEQ ID NO: 11) (Q9H0K1 whole entry): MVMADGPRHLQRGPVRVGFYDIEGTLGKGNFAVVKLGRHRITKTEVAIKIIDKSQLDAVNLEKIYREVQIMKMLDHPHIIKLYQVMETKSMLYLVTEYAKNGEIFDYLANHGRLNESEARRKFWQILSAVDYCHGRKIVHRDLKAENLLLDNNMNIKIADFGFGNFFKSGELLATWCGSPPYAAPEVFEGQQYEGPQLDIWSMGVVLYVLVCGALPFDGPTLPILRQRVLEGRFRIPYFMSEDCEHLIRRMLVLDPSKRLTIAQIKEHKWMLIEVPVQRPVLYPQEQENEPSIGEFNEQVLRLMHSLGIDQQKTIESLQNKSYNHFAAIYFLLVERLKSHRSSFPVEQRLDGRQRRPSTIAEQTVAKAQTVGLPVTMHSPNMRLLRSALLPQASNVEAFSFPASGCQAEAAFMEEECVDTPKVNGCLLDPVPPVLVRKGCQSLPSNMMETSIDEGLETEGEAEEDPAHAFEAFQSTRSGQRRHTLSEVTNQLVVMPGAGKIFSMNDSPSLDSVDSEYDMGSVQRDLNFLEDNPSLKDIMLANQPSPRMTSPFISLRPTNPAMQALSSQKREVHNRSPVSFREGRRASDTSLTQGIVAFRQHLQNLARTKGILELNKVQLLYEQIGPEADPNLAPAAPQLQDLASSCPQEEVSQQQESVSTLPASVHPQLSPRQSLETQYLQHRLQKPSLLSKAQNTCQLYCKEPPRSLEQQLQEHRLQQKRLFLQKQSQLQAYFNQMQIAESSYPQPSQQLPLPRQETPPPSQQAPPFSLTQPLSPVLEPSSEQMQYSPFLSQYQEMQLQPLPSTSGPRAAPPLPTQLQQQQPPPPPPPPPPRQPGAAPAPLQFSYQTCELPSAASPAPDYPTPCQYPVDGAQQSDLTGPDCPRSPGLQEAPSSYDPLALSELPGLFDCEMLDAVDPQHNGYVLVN

Compound | IC50 (SIK1 (SEQ ID NO: 10)) [nM] | IC50 [2] [nM] | IC50 [3] [nM] | other results
Fc1cccc(-c2c[nH]c3ncc(-c4ccsc4)cc23)c1Cl [Example 114, 3-(2-chloro-3-fluorophenyl)-5-(thiophen-3-yl)-1H-pyrrolo[2,3-b]pyridine] | > 100 | > 1000 | < 100 | F ([1]; PO 20 mg/kg vs IV 5 mg/kg, from AUCinf and nominal doses): 15%; AUC(0-inf) [1, 4]: 2620 ± 647 ng·h/mL; AUC(0-t) [1, 4]: 2600 ± 637 ng·h/mL; clearance [1, 4]: 33.4 ± 9.57 mL/min/kg; half-life [1, 4]: 32.4 ± 3 min; Cmax ([1]; male, Sprague Dawley, plasma, IV 5 mg/kg, rat, read-out: Cmax (concentration at time zero)): 3850 ng/mL; Vd ([1]; male, Sprague Dawley, plasma, IV 5 mg/kg, rat, read-out: Vss): 1.61 ± 0.28 L/kg; AUC(0-inf) [1, 5]: 1600 ± 183 ng·h/mL; AUC(0-t) [1, 5]: 1580 ± 179 ng·h/mL; Cmax ([1]; male, Sprague Dawley, plasma, PO 20 mg/kg, rat, read-out: Cmax): 853 ng/mL; Tmax ([1]; male, Sprague Dawley, plasma, PO 20 mg/kg, rat, read-out: Tmax (median)): 15 min
O=C(c1c(F)cccc1F)c1c[nH]c2ncc(-c3cnc(N4CCOCC4)s3)cc12 [Example 213, (2,6-difluorophenyl)(5-(2-morpholinothiazol-5-yl)-1H-pyrrolo[2,3-b]pyridin-3-yl)methanone] | > 100 | < 100 | < 100 | 
CCS(=O)(=O)N1CCC(n2cc(-c3cnc4[nH]cc(-c5cc(F)cc(F)c5OC)c4c3)cn2)CC1 [Example 215, 3-(3,5-difluoro-2-methoxyphenyl)-5-(1-(1-(ethylsulfonyl)piperidin-4-yl)-1H-pyrazol-4-yl)-1H-pyrrolo[2,3-b]pyridine] | > 1000 | > 100 | > 100 | 
CCCS(=O)(=O)N1CCC(n2cc(-c3cnc4[nH]cc(-c5cc(F)cc(F)c5OC)c4c3)cn2)CC1 [Example 216, 3-(3,5-difluoro-2-methoxyphenyl)-5-(1-(1-(propylsulfonyl)piperidin-4-yl)-1H-pyrazol-4-yl)-1H-pyrrolo[2,3-b]pyridine] | > 1000 | > 100 | > 100 | 
COc1c(F)cc(F)cc1-c1c[nH]c2ncc(-n3cc(N4CCN(S(C)(=O)=O)CC4)cn3)cc12 [Example 217, 3-(3,5-difluoro-2-methoxyphenyl)-5-(4-(4-(methylsulfonyl)piperazin-1-yl)-1H-pyrazol-1-yl)-1H-pyrrolo[2,3-b]pyridine] | > 100 | < 100 | < 100 | 
COc1c(F)cc(F)cc1-c1c[nH]c2ncc(-n3cc(N4CCN(CCO)CC4)cn3)cc12 [Example 218, 2-(4-(1-(3-(3,5-difluoro-2-methoxyphenyl)-1H-pyrrolo[2,3-b]pyridin-5-yl)-1H-pyrazol-4-yl)piperazin-1-yl)ethanol] | > 100 | < 100 | < 100 | 
CN1CCN(S(=O)(=O)n2cc(-c3cnc4[nH]cc(-c5ccc6c(c5)OC(F)(F)O6)c4c3)cn2)CC1 [Example 219, 3-(2,2-difluorobenzo[d][1,3]dioxol-5-yl)-5-(1-((4-methylpiperazin-1-yl)sulfonyl)-1H-pyrazol-4-yl)-1H-pyrrolo[2,3-b]pyridine] | > 100 | < 100 | < 100 | 
CN1CCC(n2cc(-c3cnc4[nH]cc(-c5ccc6c(c5)OC(F)(F)O6)c4c3)cn2)CC1 [Example 220, 3-(2,2-difluorobenzo[d][1,3]dioxol-5-yl)-5-(1-(1-methylpiperidin-4-yl)-1H-pyrazol-4-yl)-1H-pyrrolo[2,3-b]pyridine] | > 1000 | > 1000 | > 100 | 
CS(=O)(=O)N1CCC(n2cc(-c3cnc4[nH]cc(-c5ccc6c(c5)OC(F)(F)O6)c4c3)cn2)CC1 [Example 221, 3-(2,2-difluorobenzo[d][1,3]dioxol-5-yl)-5-(1-(1-(methylsulfonyl)piperidin-4-yl)-1H-pyrazol-4-yl)-1H-pyrrolo[2,3-b]pyridine] | > 1000 | > 1000 | > 1000 | 
CCS(=O)(=O)N1CCC(n2cc(-c3cnc4[nH]cc(-c5ccc6c(c5)OC(F)(F)O6)c4c3)cn2)CC1 [Example 222, 3-(2,2-difluorobenzo[d][1,3]dioxol-5-yl)-5-(1-(1-(ethylsulfonyl)piperidin-4-yl)-1H-pyrazol-4-yl)-1H-pyrrolo[2,3-b]pyridine] | > 1000 | > 1000 | > 1000 | 
CCCS(=O)(=O)N1CCC(n2cc(-c3cnc4[nH]cc(-c5ccc6c(c5)OC(F)(F)O6)c4c3)cn2)CC1 [Example 223, 3-(2,2-difluorobenzo[d][1,3]dioxol-5-yl)-5-(1-(1-(propylsulfonyl)piperidin-4-yl)-1H-pyrazol-4-yl)-1H-pyrrolo[2,3-b]pyridine] | > 1000 | > 1000 | > 1000 | 
CS(=O)(=O)N1CCN(c2cnn(-c3cnc4[nH]cc(-c5ccc6c(c5)OC(F)(F)O6)c4c3)c2)CC1 [Example 224, 3-(2,2-difluorobenzo[d][1,3]dioxol-5-yl)-5-(4-(4-(methylsulfonyl)piperazin-1-yl)-1H-pyrazol-1-yl)-1H-pyrrolo[2,3-b]pyridine] | > 100 | < 100 | < 100 | 
OCCN1CCN(c2cnn(-c3cnc4[nH]cc(-c5ccc6c(c5)OC(F)(F)O6)c4c3)c2)CC1 [Example 225, 2-(4-(1-(3-(2,2-difluorobenzo[d][1,3]dioxol-5-yl)-1H-pyrrolo[2,3-b]pyridin-5-yl)-1H-pyrazol-4-yl)piperazin-1-yl)ethanol] | > 100 | < 100 | < 100 | 
COc1c(F)cc(F)cc1-c1c[nH]c2ncc(-c3cnn(C4CCN(CCO)CC4)c3)cc12 [Example 226, 2-(4-(4-(3-(3,5-difluoro-2-methoxyphenyl)-1H-pyrrolo[2,3-b]pyridin-5-yl)-1H-pyrazol-1-yl)piperidin-1-yl)ethanol] | > 100 | < 100 | < 100 | 
OCCN1CCC(n2cc(-c3cnc4[nH]cc(-c5ccc6c(c5)OC(F)(F)O6)c4c3)cn2)CC1 [Example 227, 2-(4-(4-(3-(2,2-difluorobenzo[d][1,3]dioxol-5-yl)-1H-pyrrolo[2,3-b]pyridin-5-yl)-1H-pyrazol-1-yl)piperidin-1-yl)ethanol] | > 100 | < 100 | < 100 | 
CC(=O)O[C@H]1C(=O)[C@@]2(C)[C@H]([C@H](OC(=O)c3ccccc3)[C@]3(O)C[C@H](OC(=O)[C@H](O)[C@@H](NC(=O)c4ccccc4)c4ccccc4)C(C)=C1C3(C)C)[C@]1(OC(C)=O)CO[C@@H]1C[C@@H]2O [taxol] |  |  |  | antitumor effect (SKOV3ip1 tumor cells): significant antitumor effects; antitumor effect (tumor volume, weight, number) (SKOv3 cells): significant antitumor effects; also recorded: inhibited the abdominal tumor growth and tumor cell dissemination
